In brackets after ≈: the same amount, converted by molar mass. Read-outs that look alike come from different tables or passages of the source.
How the values were obtained:
Test in all cases: MIC determination
Type in all cases: cell-based
[1] = test system: E. coli ATCC 25922; conditions: Escherichia coli
[2] = test system: S. aureus ATCC 29213; conditions: Staphylococcus aureus
[3] = test system: S. aureus MP-513 clinical cErm; conditions: Staphylococcus aureus
[4] = test system: E. coli MP-9 ΔTolC; conditions: Escherichia coli
[5] = test system: K. pneumoniae ATCC 10031; conditions: Klebsiella pneumoniae, ATCC10031
[6] = test system: P. aeruginosa ATCC 27853; conditions: Pseudomonas aeruginosa, ATCC27853
[7] = test system: S. aureus MP-549 msr(a) USA 300; conditions: Staphylococcus aureus, USA300, S. aureus MP-549 msr(a) USA 300
[8] = test system: S. aureus BAA 977 iErmA; conditions: Staphylococcus aureus, BAA977
[9] = test system: S. pneumoniae MMX 3031 cMefA; conditions: Streptococcus pneumoniae, MMX3031CMEFA
[10] = test system: E. coli MMX TolC parent strain; conditions: Escherichia coli
[11] = test system: C. difficile BAA 1805; conditions: Clostridioides difficile, BAA1805
[12] = test system: S. aureus Micromyx USA 300; conditions: Staphylococcus aureus, USA300
[13] = test system: H. influenzae ATCC 49247; conditions: Haemophilus influenzae, ATCC49247
[14] = test system: S. pyogenes MMX 946 Macrolide-Resistant; conditions: Streptococcus pyogenes
[15] = test system: S. aureus MMX 3035 cErmA; conditions: Staphylococcus aureus, MMX3035CERMA
[16] = test system: B. fragilis ATCC 25285; conditions: Bacteroides fragilis, ATCC25285
[17] = test system: S. pyogenes ATCC 19615; conditions: Streptococcus pyogenes, ATCC19615
[18] = test system: E. coli MMX 0121 ΔTolC; conditions: Escherichia coli
[19] = test system: P. aeruginosa MMX 3476 Δmex; conditions: Pseudomonas aeruginosa
[20] = test system: P. aeruginosa MMX Mex parent strain; conditions: Pseudomonas aeruginosa
[21] = test system: E. faecalis MMX 847 Macrolide-Resistant; conditions: Enterococcus faecalis
[22] = test system: S. pneumoniae MMX 3028 cErmB; conditions: Streptococcus pneumoniae, MMX3028CERMB
[23] = test system: E. faecalis ATCC 29212; conditions: Enterococcus faecalis
[24] = test system: S. pneumoniae ATCC 49619; conditions: Streptococcus pneumoniae, ATCC49619; S. pneumoniae ATCC 49619; read-out: MIC
[25] = test system: E. coli MP-74 LptD mutant; conditions: Escherichia coli
[26] = ATCC29213, S. aureus ATCC 29213, read-out: MIC
[27] = S. aureus Micromyx USA 300, read-out: MIC
[28] = H. influenzae ATCC 49247, read-out: MIC
[29] = S. pyogenes MMX 946 Macrolide-Resistant (MacRes), read-out: MIC
[30] = S. aureus MMX 3035 cErmA, read-out: MIC
[31] = K. pneumoniae ATCC 10031, read-out: MIC
[32] = B. fragilis ATCC 25285, read-out: MIC
[33] = S. pyogenes ATCC 19615, read-out: MIC
[34] = S. pneumoniae MMX 3028 cErmB, read-out: MIC

SMILES | MIC ([1]; ATCC25922) | MIC ([2]; ATCC29213) | MIC [3] | MIC [4] | MIC [5] | MIC [6] | MIC [2, 26] | MIC [7] | MIC [8] | MIC [9] | MIC [10] | MIC [11] | MIC [12, 27] | MIC [13, 28] | MIC [14, 29] | MIC [15, 30] | MIC [5, 31] | MIC [18] | MIC [19] | MIC [24] | also measured
CSC1O[C@H]([C@H](NC(=O)[C@H]2NC[C@@H]3CN(CC(=O)O)CCO[C@H]32)[C@H](C)Cl)C(O)C(O)[C@H]1O (some centres unmarked) [FSA-504063] | > 64 µg/mL | > 64 µg/mL | > 64 µg/mL | > 64 µg/mL | > 64 µg/mL | > 64 µg/mL | – | – | – | – | – | – | – | – | – | – | – | – | – | – | –
CSC1O[C@H]([C@H](NC(=O)[C@H]2NC[C@@H]3CNCCO[C@H]32)[C@H](C)Cl)C(O)C(O)[C@H]1O (some centres unmarked) [FSA-503001] | > 64 µg/mL | – | > 64 µg/mL | > 64 µg/mL | > 64 µg/mL | > 64 µg/mL | 64 µg/mL (≈ 145 µM) | > 64 µg/mL | > 64 µg/mL | – | – | – | – | – | – | – | – | – | – | – | –
CSC1O[C@H]([C@H](NC(=O)[C@H]2NC[C@@H]3CN(Cc4ccc(N)nc4)CCO[C@H]32)[C@H](C)Cl)C(O)[C@@H](O)[C@H]1O (some centres unmarked) [FSA-504050] | > 64 µg/mL | – | > 64 µg/mL | > 64 µg/mL | > 64 µg/mL | > 64 µg/mL | 32 µg/mL (≈ 58.6 µM) | 32 µg/mL (≈ 58.6 µM) | 64 µg/mL (≈ 117 µM) | – | – | – | – | – | – | – | – | – | – | – | –
CSC1O[C@H]([C@H](NC(=O)[C@@H]2[C@@H]3OCC=CC[C@H]3CN2C)[C@H](C)Sc2ccc(-c3cncnc3)cc2)C(O)[C@@H](O)[C@H]1O (some centres unmarked) [FSA-212034] | > 64 µg/mL | – | – | 16 µg/mL (≈ 26.5 µM) | – | > 64 µg/mL | 0.25 µg/mL (≈ 0.415 µM) | 0.5 µg/mL (≈ 0.829 µM) | 0.25 µg/mL (≈ 0.415 µM) | ≤ 0.06 µg/mL | > 64 µg/mL | 0.5 µg/mL (≈ 0.829 µM) | 0.25 µg/mL (≈ 0.415 µM) | 4 µg/mL (≈ 6.64 µM) | 2 µg/mL (≈ 3.32 µM) | 32 µg/mL (≈ 53.1 µM) | 64 µg/mL (≈ 106 µM) | 1 µg/mL (≈ 1.66 µM) | > 64 µg/mL | ≤ 0.06 µg/mL | MIC [16, 32]: 1 µg/mL (≈ 1.66 µM); MIC [17, 33]: ≤ 0.06 µg/mL; MIC [20]: > 64 µg/mL; MIC [21]: > 64 µg/mL; MIC [22, 34]: 4 µg/mL (≈ 6.64 µM); MIC ([23]; ATCC29212): 16 µg/mL (≈ 26.5 µM)
CSC1O[C@H]([C@H](NC(=O)[C@H]2NC[C@H]3CC=CCO[C@H]32)[C@H](C)Cl)C(O)[C@@H](O)[C@H]1O (some centres unmarked) [FSA-507051] | 32 µg/mL (≈ 73.2 µM) | 16 µg/mL (≈ 36.6 µM) | – | – | – | > 32 µg/mL | – | – | 16 µg/mL (≈ 36.6 µM) | 1 µg/mL (≈ 2.29 µM) | > 32 µg/mL | > 32 µg/mL | – | – | – | – | – | > 32 µg/mL | > 32 µg/mL | 1 µg/mL (≈ 2.29 µM) | MIC [12]: 16 µg/mL (≈ 36.6 µM); MIC [13]: 16 µg/mL (≈ 36.6 µM); MIC [14]: 32 µg/mL (≈ 73.2 µM); MIC [15]: > 32 µg/mL; MIC [16]: 32 µg/mL (≈ 73.2 µM); MIC [17]: 0.5 µg/mL (≈ 1.14 µM); MIC [20]: > 32 µg/mL; MIC [21]: > 32 µg/mL; MIC [22]: > 32 µg/mL; MIC ([23]; ATCC29212): > 32 µg/mL
CSC1O[C@H]([C@H](NC(=O)[C@H]2NC[C@@H]3C[C@@H](c4ccc(F)cc4)CCO[C@H]32)[C@H](C)Cl)C(O)[C@@H](O)[C@H]1O (some centres unmarked) [FSA-507061] | – | – | – | 4 µg/mL (≈ 7.5 µM) | – | – | 0.12 µg/mL (≈ 0.225 µM) | 0.125 µg/mL (≈ 0.234 µM) | 0.25 µg/mL (≈ 0.469 µM) | ≤ 0.06 µg/mL | – | – | ≤ 0.06 µg/mL | 4 µg/mL (≈ 7.5 µM) | 4 µg/mL (≈ 7.5 µM) | 64 µg/mL (≈ 120 µM) | 16 µg/mL (≈ 30 µM) | 2 µg/mL (≈ 3.75 µM) | > 64 µg/mL | ≤ 0.06 µg/mL | MIC ([1]; ATCC25922, E. coli ATCC 25922, read-out: MIC): 64 µg/mL (≈ 120 µM); MIC ([10]; E. coli MMX TolC parent strain, read-out: MIC): > 64 µg/mL; MIC ([11]; C. difficile BAA 1805, read-out: MIC): 2 µg/mL (≈ 3.75 µM); MIC [25]: 8 µg/mL (≈ 15 µM); MIC [16, 32]: 64 µg/mL (≈ 120 µM); MIC [17, 33]: ≤ 0.06 µg/mL; MIC ([6]; P. aeruginosa ATCC 27853, read-out: MIC): > 64 µg/mL; MIC ([20]; P. aeruginosa MMX Mex parent strain, read-out: MIC): > 64 µg/mL; MIC ([21]; E. faecalis MMX 847 Macrolide-Resistant (MacRes), read-out: MIC): 32 µg/mL (≈ 60 µM); MIC [22, 34]: 4 µg/mL (≈ 7.5 µM); MIC ([23]; ATCC29212, read-out: MIC): ≤ 0.06 µg/mL
